Data as given in publication PMC4764975, “Probing the enzyme kinetics, allosteric modulation and activation of α1- and α2-subunit-containing AMP-activated protein kinase (AMPK) heterotrimeric complexes by pharmacological and physiological activators” (Biochemical Journal, 2016).
pKd: −log10 of the molar value. Entries after “also recorded” stand apart in the source; their conditions may differ. Read-outs that look alike come from different tables or passages of the source.

Columns and labels:
AMPK α1β1γ1 [1] = target: T1, AMPK α1β1γ1 (Homo sapiens, UniProt P54619+Q13131+Q9Y478); assay: Protection of pAMPK α-pThr172/174 from PP2Aα (slot-blot ELISA); assay type: biochemical
T1 construct: Recombinant full-length AMPK heterotrimeric complexes α1β1γ1, α1β2γ1, α1β2γ3, α2β1γ1, α2β2γ1 and α2β2γ3 were cloned; 6X-His (N); made in house; host or cells: E. coli BL21-CodonPlus (DE3)-RIPL
Experimental: (§1) Test compound was previously diluted in half-log increments, starting at 40 μM in 100% DMSO, diluted 10-fold in assay buffer and dispensed into a microtitre plate. After 15 min at room temperature, phosphatase was added to the mixture and the reaction was allowed to proceed for 60 min at room temperature. Reactions were quenched by the addition of okadaic acid, and transferred to PVDF membrane using the slot-blot apparatus and subjected to immunoblotting. Phosphatase sensitivity was similarly assessed by subjecting pAMPK to a phosphatase (PP2Aα) treatment using various concentrations and incubation times. The concentration of phosphatase was expressed as nmol of PP2Aα per minute per nmol of pAMPK in the reaction.
(§2) The membrane was blocked with Western Blot Blocking Buffer Reagent (Li-Cor) for 3–4 h at room temperature. […] Following the wash step, goat anti-rabbit 800CW (Rockland) at 1:10000 dilution was used as a secondary antibody. Blots were visualized using the Li-Cor Odyssey infrared imaging system and signal quantification was performed using the Odyssey software.
(§3) Data are mean (n=2), and curves were generated using best-fit values.

AMPK α2β2γ3 [2] = target: T2, AMPK α2β2γ3 (Homo sapiens, UniProt O43741+P54646+Q9UGI9); assay: as above; assay type: biochemical
T2 construct: Recombinant full-length AMPK heterotrimeric complexes α1β1γ1, α1β2γ1, α1β2γ3, α2β1γ1, α2β2γ1 and α2β2γ3 were cloned; 6X-His (N); made in house; host or cells: E. coli BL21-CodonPlus (DE3)-RIPL
Experimental: as §1, §2, §3

AMPK α2β2γ1 [3] = target: T3, AMPK α2β2γ1 (Homo sapiens, UniProt O43741+P54619+P54646); assay: as above; assay type: biochemical
T3 construct: Recombinant full-length AMPK heterotrimeric complexes α1β1γ1, α1β2γ1, α1β2γ3, α2β1γ1, α2β2γ1 and α2β2γ3 were cloned; 6X-His (N); made in house; host or cells: E. coli BL21-CodonPlus (DE3)-RIPL
Experimental: as §1, §2, §3

AMPK α1β2γ3 [4] = target: T4, AMPK α1β2γ3 (Homo sapiens, UniProt O43741+Q13131+Q9UGI9); assay: as above; assay type: biochemical
T4 construct: Recombinant full-length AMPK heterotrimeric complexes α1β1γ1, α1β2γ1, α1β2γ3, α2β1γ1, α2β2γ1 and α2β2γ3 were cloned; 6X-His (N); made in house; host or cells: E. coli BL21-CodonPlus (DE3)-RIPL
Experimental: as §1, §2, §3

AMPK α1β2γ1 [5] = target: T5, AMPK α1β2γ1 (Homo sapiens, UniProt O43741+P54619+Q13131); assay: as above; assay type: biochemical
T5 construct: Recombinant full-length AMPK heterotrimeric complexes α1β1γ1, α1β2γ1, α1β2γ3, α2β1γ1, α2β2γ1 and α2β2γ3 were cloned; 6X-His (N); made in house; host or cells: E. coli BL21-CodonPlus (DE3)-RIPL
Experimental: as §1, §2, §3

AMPK α2β1γ1 = target: T6, AMPK α2β1γ1 (Homo sapiens, UniProt P54619+P54646+Q9Y478); assay: as above; assay type: biochemical
T6 construct: Recombinant full-length AMPK heterotrimeric complexes α1β1γ1, α1β2γ1, α1β2γ3, α2β1γ1, α2β2γ1 and α2β2γ3 were cloned; 6X-His (N); made in house; host or cells: E. coli BL21-CodonPlus (DE3)-RIPL
Experimental: as §1, §2, §3

BAP-tagged AMPK α1β1γ1 [6] = target: T7, BAP-tagged AMPK α1β1γ1 (Homo sapiens, UniProt P54619+Q13131+Q9Y478); design: method as in PMID 25066137; conditions: reported previously; cited from earlier work
T7 construct: Recombinant full-length AMPK heterotrimeric complexes α1β1γ1, α1β2γ1, α1β2γ3, α2β1γ1, α2β2γ1 and α2β2γ3 were cloned; 6X-His (N); AviTag (BAP); made in house; host or cells: E. coli (co-expressed with BirA)

AMPK α1β1γ1 [7] = target: T1, AMPK α1β1γ1; assay: TR-FRET allosteric activation assay; assay type: biochemical; conditions: 50 nM Cy5-SAMS, ATP at Km
Source text: (§4) After excitation at 320 nm, the energy from the Europium donor is transferred to the Cy5 acceptor which in turn generates light at 665 nm. The intensity of the signal is proportional to the level of AMPK-mediated Cy5 substrate phosphorylation. […] Non-specific emission obtained from samples containing all the reagents except enzyme was used to normalize the values.
(§5) The basal kinase activity of the pAMPK isoforms in the absence of activator was normalized to zero (baseline) and the changes in the enzyme activity in the presence of activator at different concentrations was compared with the basal activity.

AMPK α2β2γ3 [8] = target: T2, AMPK α2β2γ3; assay: TR-FRET allosteric activation assay; assay type: biochemical; conditions: 50 nM Cy5-SAMS, ATP at Km
Source text: as §4, §5

AMPK α2β2γ1 [9] = target: T3, AMPK α2β2γ1; assay: TR-FRET allosteric activation assay; assay type: biochemical; conditions: 50 nM Cy5-SAMS, ATP at Km
Source text: as §4, §5

AMPK α1β2γ3 [10] = target: T4, AMPK α1β2γ3; assay: TR-FRET allosteric activation assay; assay type: biochemical; conditions: 50 nM Cy5-SAMS, ATP at Km
Source text: as §4, §5

AMPK α1β2γ1 [11] = target: T5, AMPK α1β2γ1; assay: TR-FRET allosteric activation assay; assay type: biochemical; conditions: 50 nM Cy5-SAMS, ATP at Km
Source text: as §4, §5

BAP-tagged AMPK α2β2γ1 = target: T8, BAP-tagged AMPK α2β2γ1 (Homo sapiens, UniProt O43741+P54619+P54646); assay: SPR direct binding (Biacore); conditions: in the presence of 150 μM AMP, 37-1000 nM
T8 construct: Recombinant full-length AMPK heterotrimeric complexes α1β1γ1, α1β2γ1, α1β2γ3, α2β1γ1, α2β2γ1 and α2β2γ3 were cloned into a tricistronic vector system; 6X-His (N); made in house; host or cells: E. coli BL21-CodonPlus (DE3)-RIPL, co-expressed with BirA
Experimental: (§6) SPR experiments were performed on a Biacore™ 3000 instrument (GE Healthcare). BAP-tagged AMPK isoform (α1β1γ1, α1β2γ1, α2β2γ1, α2β2γ3) was captured on to a streptavidin sensor chip to levels ranging from 4000 to 6000 RU. […] Binding responses were processed using Scrubber 2 (BioLogic Software Pty Ltd) to zero, x-align, double reference and corrected for excluded volume effect of DMSO in the data. […] The compound was injected at a flow rate of 50 μl/min with total contact time of 120 s and dissociation time of 600 s. Rate parameters (kon, koff) and corresponding dissociation constant(KD=koff/kon) were determined by globally fitting all of the experimental data to a simple 1:1 interaction model using Biaeval software (GE Healthcare). To determine nt binding, 10 concentrations with 2-fold dilutions were tested in duplicate. The highest concentration tested was 2 mM. The compound was injected at a flow rate of 50 μl/min with total contact time of 120 s and dissociation time of 300 s. Equilibrium dissociation constant (KD) was determined using a steady-state affinity algorithm available within Scrubber.
(§7) We then compared the binding of nts (AMP, ADP and ATP) to α1β1γ1, α1β2γ1, α2β2γ1 and α2β2γ3 isoforms in the presence and absence of Mg^2+ and Stau, using SPR technique. […]

BAP-tagged AMPK α1β1γ1 [12] = target: T7, BAP-tagged AMPK α1β1γ1; assay: SPR direct binding (Biacore); conditions: in the presence of 150 μM AMP, n=1, read-out: KD
Experimental: as §6, §7

[13] = activator concentration for half-maximal protection of pThr172/174, 10 nM AMPK, 40 nM PP2Aα, read-out: Protection pEC50 (converted)
[14] = extent of protection (Figure 7)

T3 sequence (P54646 whole entry): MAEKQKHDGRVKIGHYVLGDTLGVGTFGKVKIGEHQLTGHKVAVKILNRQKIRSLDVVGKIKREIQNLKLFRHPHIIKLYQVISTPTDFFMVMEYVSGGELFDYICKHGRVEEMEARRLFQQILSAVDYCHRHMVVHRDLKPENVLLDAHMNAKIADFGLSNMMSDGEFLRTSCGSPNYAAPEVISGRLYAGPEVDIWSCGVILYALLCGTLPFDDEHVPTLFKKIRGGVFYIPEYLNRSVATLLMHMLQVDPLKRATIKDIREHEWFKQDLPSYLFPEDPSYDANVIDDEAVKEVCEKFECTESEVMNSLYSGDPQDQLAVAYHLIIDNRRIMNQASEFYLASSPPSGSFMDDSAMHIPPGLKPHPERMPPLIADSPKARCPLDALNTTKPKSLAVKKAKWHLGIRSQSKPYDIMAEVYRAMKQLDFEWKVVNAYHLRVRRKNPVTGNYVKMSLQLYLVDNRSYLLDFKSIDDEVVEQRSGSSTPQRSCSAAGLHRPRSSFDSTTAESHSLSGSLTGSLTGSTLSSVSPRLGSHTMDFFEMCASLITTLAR
T3 sequence (O43741 whole entry): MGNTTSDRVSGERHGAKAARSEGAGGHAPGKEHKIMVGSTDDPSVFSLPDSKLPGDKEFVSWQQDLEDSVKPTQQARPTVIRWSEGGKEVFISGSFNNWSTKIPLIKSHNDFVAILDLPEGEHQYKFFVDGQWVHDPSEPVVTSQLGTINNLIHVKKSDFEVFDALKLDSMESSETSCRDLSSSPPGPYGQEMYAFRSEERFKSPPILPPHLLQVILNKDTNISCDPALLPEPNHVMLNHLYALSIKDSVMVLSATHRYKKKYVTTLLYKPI
T3 sequence (P54619 whole entry): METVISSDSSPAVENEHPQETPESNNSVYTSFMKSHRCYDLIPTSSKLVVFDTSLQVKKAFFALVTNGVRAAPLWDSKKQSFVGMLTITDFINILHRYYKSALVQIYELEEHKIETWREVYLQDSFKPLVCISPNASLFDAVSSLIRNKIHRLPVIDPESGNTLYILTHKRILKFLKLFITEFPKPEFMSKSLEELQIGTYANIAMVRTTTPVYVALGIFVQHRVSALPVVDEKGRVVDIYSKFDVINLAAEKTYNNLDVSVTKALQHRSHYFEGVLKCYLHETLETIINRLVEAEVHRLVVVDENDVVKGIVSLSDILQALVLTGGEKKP
T2 sequence (P54646 whole entry): as the sequence (P54646 whole entry) above
T2 sequence (O43741 whole entry): as the sequence (O43741 whole entry) above
T2 sequence (Q9UGI9 whole entry): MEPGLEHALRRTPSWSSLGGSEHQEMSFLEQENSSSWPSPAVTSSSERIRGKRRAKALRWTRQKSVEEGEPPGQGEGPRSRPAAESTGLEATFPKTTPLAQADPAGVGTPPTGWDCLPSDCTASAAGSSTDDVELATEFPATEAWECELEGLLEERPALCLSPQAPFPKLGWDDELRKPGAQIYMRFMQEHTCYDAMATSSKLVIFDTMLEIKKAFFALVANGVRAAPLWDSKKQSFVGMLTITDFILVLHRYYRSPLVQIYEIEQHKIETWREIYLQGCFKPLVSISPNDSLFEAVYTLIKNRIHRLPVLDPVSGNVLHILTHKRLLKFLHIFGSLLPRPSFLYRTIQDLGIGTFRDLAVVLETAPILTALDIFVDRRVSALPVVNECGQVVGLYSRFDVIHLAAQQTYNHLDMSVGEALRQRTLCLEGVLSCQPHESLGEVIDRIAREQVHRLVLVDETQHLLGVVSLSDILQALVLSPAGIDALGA
T5 sequence (Q13131 whole entry): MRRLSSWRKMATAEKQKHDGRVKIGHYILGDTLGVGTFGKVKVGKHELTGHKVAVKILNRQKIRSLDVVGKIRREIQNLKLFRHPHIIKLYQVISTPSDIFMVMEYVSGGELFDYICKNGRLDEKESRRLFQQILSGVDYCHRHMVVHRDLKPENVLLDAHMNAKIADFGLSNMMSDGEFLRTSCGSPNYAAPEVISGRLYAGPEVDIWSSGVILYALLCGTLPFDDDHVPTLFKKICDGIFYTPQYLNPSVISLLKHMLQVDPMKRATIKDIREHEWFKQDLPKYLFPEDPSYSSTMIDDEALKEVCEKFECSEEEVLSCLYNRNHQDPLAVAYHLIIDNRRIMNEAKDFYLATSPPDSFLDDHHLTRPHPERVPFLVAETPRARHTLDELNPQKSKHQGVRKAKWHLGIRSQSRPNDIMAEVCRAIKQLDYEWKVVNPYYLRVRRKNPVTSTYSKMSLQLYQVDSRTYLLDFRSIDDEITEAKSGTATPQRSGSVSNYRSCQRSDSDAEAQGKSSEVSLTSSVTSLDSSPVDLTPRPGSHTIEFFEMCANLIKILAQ
T5 sequence (O43741 whole entry): as the sequence (O43741 whole entry) above
T5 sequence (P54619 whole entry): as the sequence (P54619 whole entry) above
T1 sequence (Q13131 whole entry): as the sequence (Q13131 whole entry) above
T1 sequence (Q9Y478 whole entry): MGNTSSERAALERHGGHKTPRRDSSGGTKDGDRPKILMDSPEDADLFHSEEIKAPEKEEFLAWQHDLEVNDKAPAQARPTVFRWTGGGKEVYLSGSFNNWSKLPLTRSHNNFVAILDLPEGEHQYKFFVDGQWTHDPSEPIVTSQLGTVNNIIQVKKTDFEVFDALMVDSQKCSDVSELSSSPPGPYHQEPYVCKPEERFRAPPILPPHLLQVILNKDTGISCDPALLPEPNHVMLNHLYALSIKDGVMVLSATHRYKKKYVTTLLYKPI
T1 sequence (P54619 whole entry): as the sequence (P54619 whole entry) above
T4 sequence (Q13131 whole entry): as the sequence (Q13131 whole entry) above
T4 sequence (O43741 whole entry): as the sequence (O43741 whole entry) above
T4 sequence (Q9UGI9 whole entry): as the sequence (Q9UGI9 whole entry) above
T8 sequence (P54646 whole entry): as the sequence (P54646 whole entry) above
T8 sequence (O43741 whole entry): as the sequence (O43741 whole entry) above
T8 sequence (P54619 whole entry): as the sequence (P54619 whole entry) above
T6 sequence (P54646 whole entry): as the sequence (P54646 whole entry) above
T6 sequence (Q9Y478 whole entry): as the sequence (Q9Y478 whole entry) above
T6 sequence (P54619 whole entry): as the sequence (P54619 whole entry) above
T7 sequence (Q13131 whole entry): as the sequence (Q13131 whole entry) above
T7 sequence (Q9Y478 whole entry): as the sequence (Q9Y478 whole entry) above
T7 sequence (P54619 whole entry): as the sequence (P54619 whole entry) above

N#Cc1c(O)c2c(-c3ccc(-c4ccccc4O)cc3)csc2[nH]c1=O [A769662]
enhanced protection of pThr172 compared with AMP (AMPK α1β1γ1 [1]): 10 fold
EC50 (AMPK α1β1γ1 [1]; [13]): 0.046 µM
protection of α-pThr172/174 from PP2Aα (AMPK α1β1γ1 [1]; [14]): > 70%
EC50 (AMPK α2β2γ3 [2]; [13]): 5.6 µM
protection of α-pThr172/174 from PP2Aα (AMPK α2β2γ3 [2]; [14]): > 70%
EC50 (AMPK α2β2γ1 [3]; [13]): 2.32 µM
protection of α-pThr172/174 from PP2Aα (AMPK α2β2γ1 [3]; [14]): > 70%
EC50 (AMPK α1β2γ3 [4]; [13]): > 40 µM
protection of α-pThr172/174 from PP2Aα (AMPK α1β2γ3 [4]; [14]): > 70%
EC50 (AMPK α1β2γ1 [5]; [13]): 4.7 µM
protection of α-pThr172/174 from PP2Aα (AMPK α1β2γ1 [5]; [14]): > 70%
enhanced protection of pThr172 compared with AMP (AMPK α2β1γ1): 3 fold
protection of α-pThr172/174 from PP2Aα (AMPK α2β1γ1; [14]): > 70%
pKd (BAP-tagged AMPK α1β1γ1 [6]): 7.32
AC50 (AMPK α1β1γ1 [7]): 0.0722 µM
AC50 (AMPK α2β2γ3 [8]): > 40 µM
AC50 (AMPK α2β2γ1 [9]): > 40 µM
AC50 (AMPK α1β2γ3 [10]): > 40 µM
AC50 (AMPK α1β2γ1 [11]): > 40 µM
SPR binding (BAP-tagged AMPK α2β2γ1): negligible; also recorded: could not detect any binding
pKd (BAP-tagged AMPK α1β1γ1 [12]): 7.52
